From publication PMC7093416, “Selective USP7 inhibition elicits cancer cell killing through a p53-dependent mechanism” (Scientific Reports, 2020)
“And” between values parts separate entries of the source, which are not always exact repeats. Identical values can stand only once.

Test system: panel of 484 cancer cell lines
Test: PRISM cancer cell line profiling, 5 days
Type: cell-based
Set-up: Viability: scale not given here; AUC: unit not given beside the values
Description: Cancer cell line profiling was performed using the Broad’s PRISM platform. Cell treatment and data analysis were performed as described in Yu et al[42]. Raw Luminex signal was converted to AUC values for each cell line as described. The resulting AUC profile for each compound was modeled against DepMap using the limma package in R[71]. Because hotspot mutation analysis was performed against DepMap, TP53 annotations in Fig. 6c,d are directly from DepMap.

[1] = ISHIKAWAHERAKLIO02ER_ENDOMETRIUM, pert_dose 6.10E-04
[2] = ISTMES1_PLEURA, pert_dose 6.10E-04
[3] = J82_URINARY_TRACT, pert_dose 6.10E-04
[4] = JHOC5_OVARY, pert_dose 6.10E-04
[5] = JHOM1_OVARY, pert_dose 6.10E-04
[6] = JHOS2_OVARY, pert_dose 6.10E-04
[7] = JHUEM2_ENDOMETRIUM, pert_dose 6.10E-04
[8] = JMSU1_URINARY_TRACT, pert_dose 6.10E-04
[9] = K029AX_SKIN, pert_dose 6.10E-04
[10] = KMBC2_URINARY_TRACT, pert_dose 6.10E-04
[11] = KMRC1_KIDNEY, pert_dose 6.10E-04
[12] = KMRC3_KIDNEY, pert_dose 6.10E-04
[13] = KMRC20_KIDNEY, pert_dose 6.10E-04
[14] = KNS42_CENTRAL_NERVOUS_SYSTEM, pert_dose 6.10E-04
[15] = KNS60_CENTRAL_NERVOUS_SYSTEM, pert_dose 6.10E-04
[16] = KNS81_CENTRAL_NERVOUS_SYSTEM, pert_dose 6.10E-04
[17] = KP3_PANCREAS, pert_dose 6.10E-04
[18] = KPL1_BREAST, pert_dose 6.10E-04

## COc1ccc(C2=N[C@@H](c3ccc(Cl)cc3)[C@@H](c3ccc(Cl)cc3)N2C(=O)N2CCNC(=O)C2)c(OC(C)C)c1 [Nutlin-3A]
[1]
  MFI ISHIKAWAHERAKLIO02ER_ENDOMETRIUM: 17513 and 21089 and 23031 and 24710 and 21077
  Viability: 1.048
ISTMES1_PLEURA
  AUC: 0.8886
[2]
  MFI ISTMES1_PLEURA: 2566 and 2035 and 2347.5 and 2015 and 3109
  Viability: 1.235
ISTMES2_PLEURA
  AUC: 1.138
J82_URINARY_TRACT
  AUC: 1.1759
[3]
  MFI J82_URINARY_TRACT: 7594 and 8347 and 7959 and 7415.5 and 7720
  Viability: 1.013
JHH1_LIVER
  AUC: 0.9453
JHH1_LIVER, pert_dose 6.10E-04
  MFI JHH1_LIVER: 11573 and 10266 and 10186 and 11807 and 10726
  Viability: 1.394
JHH4_LIVER
  AUC: 1.013
JHH4_LIVER, pert_dose 6.10E-04
  MFI JHH4_LIVER: 1508 and 1417.5 and 1162 and 1639 and 865
  Viability: 1.304
JHH5_LIVER
  AUC: 1.1112
JHH5_LIVER, pert_dose 6.10E-04
  MFI JHH5_LIVER: 3002.5 and 2853 and 3080 and 1890 and 2323
  Viability: 1.08
JHH6_LIVER
  AUC: 1.195
JHH7_LIVER
  AUC: 1.097
JHH7_LIVER, pert_dose 6.10E-04
  MFI JHH7_LIVER: 18251 and 14971.5 and 12968 and 19915 and 22149.5
  Viability: 1.3367
JHOC5_OVARY
  AUC: 0.8963
[4]
  MFI JHOC5_OVARY: 1729 and 2155 and 2543 and 1875 and 1529
  Viability: 1.248
JHOM1_OVARY
  AUC: 1.061
[5]
  MFI JHOM1_OVARY: 10909 and 10588 and 11258 and 11487.5 and 8758
  Viability: 1.182
JHOS2_OVARY
  AUC: 1.199
[6]
  MFI JHOS2_OVARY: 8954 and 9206 and 9624 and 7221 and 11208
  Viability: 1.028
JHUEM2_ENDOMETRIUM
  AUC: 0.8108
[7]
  MFI JHUEM2_ENDOMETRIUM: 2855 and 2201 and 2113.5 and 2693 and 2731
  Viability: 1.224
JIMT1_BREAST
  AUC: 1.15
JIMT1_BREAST, pert_dose 6.10E-04
  MFI JIMT1_BREAST: 10595.5 and 12336 and 13040 and 10400 and 10776.5
JMSU1_URINARY_TRACT
  AUC: 1.157
[8]
  MFI JMSU1_URINARY_TRACT: 4527 and 4135 and 3123.5 and 5456 and 3525
  Viability: 1.215
K029AX_SKIN
  AUC: 1.078
[9]
  MFI K029AX_SKIN: 12564 and 8034.5 and 10939 and 12309 and 13968
  Viability: 1.186
KALS1_CENTRAL_NERVOUS_SYSTEM
  AUC: 1.089
KELLY_AUTONOMIC_GANGLIA
  AUC: 1.128
KELLY_AUTONOMIC_GANGLIA, pert_dose 6.10E-04
  Viability: 1.339
KMBC2_URINARY_TRACT
  AUC: 0.9038
[10]
  MFI KMBC2_URINARY_TRACT: 31608 and 32944 and 28231 and 28847.5 and 34382
  Viability: 1.231
KMRC1_KIDNEY
  AUC: 0.8619
[11]
  MFI KMRC1_KIDNEY: 5006 and 3553 and 4568 and 4375 and 4801
  Viability: 1.324
KMRC3_KIDNEY
  AUC: 1.059
[12]
  MFI KMRC3_KIDNEY: 29567 and 34290 and 33080.5 and 28662.5 and 32330
  Viability: 1.163
KMRC20_KIDNEY
  AUC: 1.075
[13]
  MFI KMRC20_KIDNEY: 6115 and 7240 and 5574 and 9127.5 and 7315
  Viability: 0.8672
KNS42_CENTRAL_NERVOUS_SYSTEM
  AUC: 1.094
[14]
  MFI KNS42_CENTRAL_NERVOUS_SYSTEM: 8504.5 and 8227 and 7874 and 8635.5 and 8359
  Viability: 1.265
KNS60_CENTRAL_NERVOUS_SYSTEM
  AUC: 1.169
[15]
  MFI KNS60_CENTRAL_NERVOUS_SYSTEM: 11444.5 and 12827 and 11109 and 11402 and 11624
  Viability: 1.1124
KNS62_LUNG
  AUC: 1.292
KNS62_LUNG, pert_dose 6.10E-04
  MFI KNS62_LUNG: 2968.5 and 3165 and 4343 and 4527 and 3128
  Viability: 1.098
KNS81_CENTRAL_NERVOUS_SYSTEM
  AUC: 0.9079
[16]
  MFI KNS81_CENTRAL_NERVOUS_SYSTEM: 11445 and 13291.5 and 12010.5 and 13242.5 and 18307.5
  Viability: 0.9016
KP2_PANCREAS
  AUC: 1.091
KP3_PANCREAS
  AUC: 1.107
[17]
  MFI KP3_PANCREAS: 17810 and 19047 and 22202 and 17616 and 20627.5
  Viability: 1.1325
KP4_PANCREAS
  AUC: 1.1795
KP4_PANCREAS, pert_dose 6.10E-04
  MFI KP4_PANCREAS: 27317.5 and 27770 and 29960.5 and 31578.5 and 28421.5
KPL1_BREAST
  AUC: 0.8742
[18]
  MFI KPL1_BREAST: 9781 and 14848 and 14727 and 9958 and 12061.5
  Viability: 0.9855
KU1919_URINARY_TRACT
  AUC: 0.8508
KURAMOCHI_OVARY
  AUC: 1.126
KYSE30_OESOPHAGUS
  AUC: 0.985
KYSE70_OESOPHAGUS
  AUC: 1.1193
KYSE140_OESOPHAGUS
  AUC: 1.1498
KYSE150_OESOPHAGUS
  AUC: 1.138
KYSE180_OESOPHAGUS
  AUC: 1.143
KYSE270_OESOPHAGUS
  AUC: 0.9726
KYSE410_OESOPHAGUS
  AUC: 1.088
KYSE510_OESOPHAGUS
  AUC: 0.9924
KYSE520_OESOPHAGUS
  AUC: 1.08
L33_PANCREAS
  AUC: 1.295
LC1SQSF_LUNG
  AUC: 1.142
LCLC103H_LUNG
  AUC: 1.118
LI7_LIVER
  AUC: 1.226
LK2_LUNG
  AUC: 1.169
LMSU_STOMACH
  AUC: 1.203
LN18_CENTRAL_NERVOUS_SYSTEM
  AUC: 0.9973
LN229_CENTRAL_NERVOUS_SYSTEM
  AUC: 1.064
LNCAPCLONEFGC_PROSTATE
  AUC: 0.906
LOUNH91_LUNG
  AUC: 1.066
LOVO_LARGE_INTESTINE
  AUC: 1.199
LOXIMVI_SKIN
  AUC: 0.8907
LS180_LARGE_INTESTINE
  AUC: 0.8897
LS411N_LARGE_INTESTINE
  AUC: 1.29
LS513_LARGE_INTESTINE
  AUC: 0.8844
LS1034_LARGE_INTESTINE
  AUC: 1.251
LU99_LUNG
  AUC: 0.8923
LUDLU1_LUNG
  AUC: 1.181
LXF289_LUNG
  AUC: 1.109
MALME3M_SKIN
  AUC: 0.9143
MCAS_OVARY
  AUC: 1.217
MCF7_BREAST
  AUC: 0.9374
MDAMB175VII_BREAST
  AUC: 0.8089
MDAMB231_BREAST
  AUC: 1.111
MDAMB435S_SKIN
  AUC: 1.081
MDAMB436_BREAST
  AUC: 1.063
MDAMB468_BREAST
  AUC: 1.113
MELHO_SKIN
  AUC: 1.198
MELJUSO_SKIN
  AUC: 0.855
MESSA_SOFT_TISSUE
  AUC: 0.8635
MEWO_SKIN
  AUC: 1.1265
MFE280_ENDOMETRIUM
  AUC: 1.185
MFE296_ENDOMETRIUM
  AUC: 1.073
MFE319_ENDOMETRIUM
  AUC: 1.2827
MG63_BONE
  AUC: 1.195
MHHES1_BONE
  AUC: 1.218
MIAPACA2_PANCREAS
  AUC: 1.097
MKN1_STOMACH
  AUC: 1.379
MKN7_STOMACH
  AUC: 1.0858
MKN45_STOMACH
  AUC: 0.8665
MKN74_STOMACH
  AUC: 1.252
MON_SOFT_TISSUE
  AUC: 0.7179
MPP89_PLEURA
  AUC: 1.087
MSTO211H_PLEURA
  AUC: 0.822
NB1_AUTONOMIC_GANGLIA
  AUC: 0.8777
NCIH23_LUNG
  AUC: 0.9857
NCIH28_PLEURA
  AUC: 0.8619
NCIH226_LUNG
  AUC: 0.8738
NCIH292_LUNG
  AUC: 0.8581
NCIH322_LUNG
  AUC: 1.162
NCIH358_LUNG
  AUC: 1.107
NCIH446_LUNG
  AUC: 1.181
NCIH460_LUNG
  AUC: 0.8926
NCIH520_LUNG
  AUC: 1.322
NCIH522_LUNG
  AUC: 1.212
NCIH596_LUNG
  AUC: 1.199
NCIH650_LUNG
  AUC: 1.249
NCIH661_LUNG
  AUC: 1.081
NCIH727_LUNG
  AUC: 1.026
NCIH747_LARGE_INTESTINE
  AUC: 1.189
NCIH838_LUNG
  AUC: 0.9622
NCIH841_LUNG
  AUC: 1.117
NCIH1048_LUNG
  AUC: 1.2735
NCIH1299_LUNG
  AUC: 1.108
NCIH1339_LUNG
  AUC: 1.0925
NCIH1355_LUNG
  AUC: 1.119
NCIH1373_LUNG
  AUC: 1.06
NCIH1435_LUNG
  AUC: 1.3405
NCIH1437_LUNG
  AUC: 1.108
NCIH1563_LUNG
  AUC: 0.9521
NCIH1568_LUNG
  AUC: 1.038
NCIH1573_LUNG
  AUC: 1.073
NCIH1581_LUNG
  AUC: 1.043
NCIH1623_LUNG
  AUC: 1.145
NCIH1648_LUNG
  AUC: 1.123
NCIH1650_LUNG
  AUC: 0.973
NCIH1651_LUNG
  AUC: 1.183
NCIH1693_LUNG
  AUC: 1.133
NCIH1703_LUNG
  AUC: 1.137
NCIH1792_LUNG
  AUC: 1.259
NCIH1793_LUNG
  AUC: 1.1676
NCIH1838_LUNG
  AUC: 1.199
NCIH1915_LUNG
  AUC: 1.099
NCIH1944_LUNG
  AUC: 0.8303
NCIH1975_LUNG
  AUC: 1.115
NCIH2009_LUNG
  AUC: 0.9703
NCIH2023_LUNG
  AUC: 1.159
NCIH2030_LUNG
  AUC: 1.1142
NCIH2052_PLEURA
  AUC: 0.8463
NCIH2077_LUNG
  AUC: 0.9696
NCIH2087_LUNG
  AUC: 1.211
NCIH2110_LUNG
  AUC: 1.143
NCIH2122_LUNG
  AUC: 0.8016
NCIH2126_LUNG
  AUC: 1.1108
